Here are results for one compound from publication PMC10150365 (Journal of Medicinal Chemistry, 2023).

Assay in all cases: Cerep SafetyScreen-87
Common to all, as to format: binding
Holding throughout (conditions): n=2

The target of test [1] is T1, Glutamate, Metabotropic, mGlu5 (Homo sapiens, UniProt P41594).
T1 construct: purchased Eurofins Cerep/Panlabs SafetyScreen-87

The next test addresses T2, Histamine H1 (Homo sapiens, UniProt P35367).
T2 construct: purchased Eurofins Cerep/Panlabs SafetyScreen-87

The target in test [2] is T3, Serotonin (5-Hydroxytryptamine) 5-HT2C (Homo sapiens, UniProt P28335).
T3 construct: purchased Eurofins Cerep/Panlabs SafetyScreen-87
T3 sequence (P28335 33-458): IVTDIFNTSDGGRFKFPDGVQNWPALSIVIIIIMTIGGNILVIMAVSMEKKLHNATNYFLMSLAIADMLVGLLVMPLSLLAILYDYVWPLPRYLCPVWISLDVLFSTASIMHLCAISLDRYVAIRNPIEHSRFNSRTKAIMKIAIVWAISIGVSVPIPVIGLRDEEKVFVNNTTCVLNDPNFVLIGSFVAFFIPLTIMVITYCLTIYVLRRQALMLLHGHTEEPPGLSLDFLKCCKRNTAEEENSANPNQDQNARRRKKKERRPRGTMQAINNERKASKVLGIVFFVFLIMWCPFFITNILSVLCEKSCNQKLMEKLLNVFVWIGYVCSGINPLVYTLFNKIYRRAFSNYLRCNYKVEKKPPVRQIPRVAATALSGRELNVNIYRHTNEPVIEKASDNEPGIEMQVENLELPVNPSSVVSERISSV

In test [3] the target is T4, Leukotriene, Cysteinyl CysLT1 (Homo sapiens, UniProt Q9Y271).
T4 construct: purchased Eurofins Cerep/Panlabs SafetyScreen-87

The target in a further test is T5, Dopamine D2S (Homo sapiens, UniProt P14416).
T5 construct: purchased Eurofins Cerep/Panlabs SafetyScreen-87

In a further test the target is T6, Cholecystokinin (CCKB) (Homo sapiens, UniProt P32239).
T6 construct: purchased Eurofins Cerep/Panlabs SafetyScreen-87

The target of the next test is T7, Adrenergic α1D (Homo sapiens, UniProt P25100).
T7 construct: purchased Eurofins Cerep/Panlabs SafetyScreen-87

The target in a further test is T8, Melanocortin MC4 (Homo sapiens, UniProt P32245).
T8 construct: purchased Eurofins Cerep/Panlabs SafetyScreen-87

For the next test, the target named is T9, Opiate K (OP2, KOP) (Homo sapiens, UniProt P41145).
T9 construct: purchased Eurofins Cerep/Panlabs SafetyScreen-87

For another test, the target named is T10, Muscarinic M3 (Homo sapiens, UniProt P20309).
T10 construct: purchased Eurofins Cerep/Panlabs SafetyScreen-87

The target in a further test is Adenosine A2A (Homo sapiens, UniProt P29274). The arrangement: purchased Eurofins Cerep/Panlabs SafetyScreen-87.
The target in test [4] is T11, Transporter, Dopamine (DAT) (Homo sapiens, UniProt Q01959).
T11 construct: purchased Eurofins Cerep/Panlabs SafetyScreen-87
T11 sequence (Q01959 whole entry): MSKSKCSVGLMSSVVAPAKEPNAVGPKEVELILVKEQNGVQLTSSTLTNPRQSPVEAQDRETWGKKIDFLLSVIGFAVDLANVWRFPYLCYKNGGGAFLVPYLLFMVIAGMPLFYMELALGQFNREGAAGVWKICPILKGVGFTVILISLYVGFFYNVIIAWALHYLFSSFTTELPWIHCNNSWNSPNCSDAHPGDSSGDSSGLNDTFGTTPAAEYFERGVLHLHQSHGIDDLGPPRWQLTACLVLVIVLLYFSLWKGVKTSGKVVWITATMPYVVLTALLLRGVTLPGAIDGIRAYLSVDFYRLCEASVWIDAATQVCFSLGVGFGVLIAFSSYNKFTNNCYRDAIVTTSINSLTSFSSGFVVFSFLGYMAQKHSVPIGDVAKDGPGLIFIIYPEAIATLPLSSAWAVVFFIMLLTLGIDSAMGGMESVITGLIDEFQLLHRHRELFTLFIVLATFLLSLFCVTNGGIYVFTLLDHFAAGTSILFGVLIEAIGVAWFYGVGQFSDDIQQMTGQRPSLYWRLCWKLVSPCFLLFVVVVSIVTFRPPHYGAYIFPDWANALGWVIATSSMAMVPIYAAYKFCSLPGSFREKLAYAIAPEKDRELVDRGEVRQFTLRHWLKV

Test [5] concerns the target T12, Platelet Activating Factor (PAF) (Homo sapiens, UniProt P25105).
T12 construct: purchased Eurofins Cerep/Panlabs SafetyScreen-87

For the next test, the target named is T13, PPARγ (Homo sapiens, UniProt P37231).
T13 construct: purchased Eurofins Cerep/Panlabs SafetyScreen-87
T13 sequence (P37231 whole entry): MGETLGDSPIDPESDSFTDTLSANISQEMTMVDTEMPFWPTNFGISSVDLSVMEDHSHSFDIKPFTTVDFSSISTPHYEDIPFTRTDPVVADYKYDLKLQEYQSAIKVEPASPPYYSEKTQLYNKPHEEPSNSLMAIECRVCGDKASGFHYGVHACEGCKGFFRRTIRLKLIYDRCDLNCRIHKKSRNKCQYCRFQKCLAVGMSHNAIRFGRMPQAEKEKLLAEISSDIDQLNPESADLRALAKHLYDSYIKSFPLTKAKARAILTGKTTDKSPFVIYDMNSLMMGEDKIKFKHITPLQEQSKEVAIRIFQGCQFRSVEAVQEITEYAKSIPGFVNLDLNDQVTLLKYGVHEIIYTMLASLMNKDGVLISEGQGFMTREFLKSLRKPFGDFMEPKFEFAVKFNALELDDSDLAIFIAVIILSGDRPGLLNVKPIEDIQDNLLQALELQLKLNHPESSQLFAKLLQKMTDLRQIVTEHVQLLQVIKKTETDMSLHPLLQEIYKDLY

The next test concerns the target T14, GABAB1A (Homo sapiens, UniProt Q9UBS5).
T14 construct: purchased Eurofins Cerep/Panlabs SafetyScreen-87

T14 sequence (Q9UBS5 15-961 limits assumed): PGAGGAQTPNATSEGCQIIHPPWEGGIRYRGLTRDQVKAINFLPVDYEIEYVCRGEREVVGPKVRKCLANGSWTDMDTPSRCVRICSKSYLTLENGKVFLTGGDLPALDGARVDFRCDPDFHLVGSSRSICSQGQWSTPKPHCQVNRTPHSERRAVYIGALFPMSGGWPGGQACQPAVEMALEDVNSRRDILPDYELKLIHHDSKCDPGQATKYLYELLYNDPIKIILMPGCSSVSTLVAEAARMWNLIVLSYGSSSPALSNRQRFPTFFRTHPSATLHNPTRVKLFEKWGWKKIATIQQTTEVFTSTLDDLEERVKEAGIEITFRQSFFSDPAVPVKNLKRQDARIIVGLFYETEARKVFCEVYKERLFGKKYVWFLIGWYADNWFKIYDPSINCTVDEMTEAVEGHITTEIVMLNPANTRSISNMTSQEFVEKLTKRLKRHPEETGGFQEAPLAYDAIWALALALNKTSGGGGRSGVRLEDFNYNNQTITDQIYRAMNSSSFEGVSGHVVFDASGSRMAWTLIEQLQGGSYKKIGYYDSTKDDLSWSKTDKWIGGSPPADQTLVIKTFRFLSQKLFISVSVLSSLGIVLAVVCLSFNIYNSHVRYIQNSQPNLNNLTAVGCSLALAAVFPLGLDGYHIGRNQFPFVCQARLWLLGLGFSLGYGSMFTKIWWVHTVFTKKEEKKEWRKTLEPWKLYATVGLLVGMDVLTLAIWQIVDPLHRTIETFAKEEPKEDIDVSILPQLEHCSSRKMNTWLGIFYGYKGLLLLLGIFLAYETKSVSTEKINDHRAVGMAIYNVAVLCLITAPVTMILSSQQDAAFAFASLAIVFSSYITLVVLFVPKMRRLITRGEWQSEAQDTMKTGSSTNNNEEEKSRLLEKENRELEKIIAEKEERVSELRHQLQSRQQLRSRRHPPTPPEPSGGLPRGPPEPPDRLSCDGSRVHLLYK
T14 sequence (O75899 42-941 partner): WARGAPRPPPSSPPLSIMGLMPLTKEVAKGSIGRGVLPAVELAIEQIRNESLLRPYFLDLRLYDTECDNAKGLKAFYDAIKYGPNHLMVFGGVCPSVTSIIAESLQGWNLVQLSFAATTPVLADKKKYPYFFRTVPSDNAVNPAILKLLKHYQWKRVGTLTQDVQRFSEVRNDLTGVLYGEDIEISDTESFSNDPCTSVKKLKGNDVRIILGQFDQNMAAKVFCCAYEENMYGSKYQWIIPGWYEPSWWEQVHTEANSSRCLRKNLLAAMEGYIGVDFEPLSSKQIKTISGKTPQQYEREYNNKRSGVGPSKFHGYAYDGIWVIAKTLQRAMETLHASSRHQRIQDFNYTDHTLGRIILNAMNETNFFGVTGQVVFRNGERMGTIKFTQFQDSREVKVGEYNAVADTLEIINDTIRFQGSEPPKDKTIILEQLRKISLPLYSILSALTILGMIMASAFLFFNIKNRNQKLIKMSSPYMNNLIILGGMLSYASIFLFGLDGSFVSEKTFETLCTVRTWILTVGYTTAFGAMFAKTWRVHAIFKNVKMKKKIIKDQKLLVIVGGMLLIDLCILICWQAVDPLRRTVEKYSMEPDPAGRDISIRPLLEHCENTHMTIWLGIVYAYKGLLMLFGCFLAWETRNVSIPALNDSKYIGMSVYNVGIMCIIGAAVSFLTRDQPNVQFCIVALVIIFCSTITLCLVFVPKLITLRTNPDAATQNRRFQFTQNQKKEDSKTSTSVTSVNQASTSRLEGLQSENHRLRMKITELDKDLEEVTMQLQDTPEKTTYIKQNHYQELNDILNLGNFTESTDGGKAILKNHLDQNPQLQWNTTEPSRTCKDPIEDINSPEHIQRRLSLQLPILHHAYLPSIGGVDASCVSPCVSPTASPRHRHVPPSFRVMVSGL
T1 sequence (P41594 21-1212): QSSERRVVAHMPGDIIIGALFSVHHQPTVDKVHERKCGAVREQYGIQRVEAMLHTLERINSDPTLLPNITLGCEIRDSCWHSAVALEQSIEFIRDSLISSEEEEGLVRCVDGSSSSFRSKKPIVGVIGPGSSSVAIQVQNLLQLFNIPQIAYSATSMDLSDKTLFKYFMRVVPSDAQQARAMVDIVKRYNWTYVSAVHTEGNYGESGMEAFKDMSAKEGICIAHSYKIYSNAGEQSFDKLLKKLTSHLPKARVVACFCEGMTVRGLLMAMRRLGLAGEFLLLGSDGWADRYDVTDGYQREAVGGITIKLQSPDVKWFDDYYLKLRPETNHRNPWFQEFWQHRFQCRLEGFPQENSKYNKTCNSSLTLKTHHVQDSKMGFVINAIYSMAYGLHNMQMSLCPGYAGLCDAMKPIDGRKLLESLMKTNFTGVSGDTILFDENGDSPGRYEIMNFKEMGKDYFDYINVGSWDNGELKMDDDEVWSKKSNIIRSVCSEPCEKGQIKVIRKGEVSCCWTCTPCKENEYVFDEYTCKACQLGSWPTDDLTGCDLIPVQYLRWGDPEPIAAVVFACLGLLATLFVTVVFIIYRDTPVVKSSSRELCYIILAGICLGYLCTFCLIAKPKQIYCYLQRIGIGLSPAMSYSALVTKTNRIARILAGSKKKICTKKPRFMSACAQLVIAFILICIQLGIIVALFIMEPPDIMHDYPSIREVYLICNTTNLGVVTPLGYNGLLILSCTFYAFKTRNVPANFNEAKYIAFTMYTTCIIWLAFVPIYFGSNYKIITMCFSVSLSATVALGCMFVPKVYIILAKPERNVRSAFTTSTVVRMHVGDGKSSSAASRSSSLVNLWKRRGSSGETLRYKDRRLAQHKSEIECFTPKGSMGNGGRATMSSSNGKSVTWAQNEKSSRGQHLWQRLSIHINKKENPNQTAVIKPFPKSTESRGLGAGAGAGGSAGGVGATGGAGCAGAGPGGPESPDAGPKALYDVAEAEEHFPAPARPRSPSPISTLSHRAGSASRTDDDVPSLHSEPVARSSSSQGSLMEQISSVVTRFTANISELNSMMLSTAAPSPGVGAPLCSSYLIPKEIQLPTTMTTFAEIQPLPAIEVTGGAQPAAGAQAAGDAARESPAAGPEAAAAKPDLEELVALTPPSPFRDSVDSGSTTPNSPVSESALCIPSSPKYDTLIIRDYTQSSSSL
T2 sequence (P35367 whole entry): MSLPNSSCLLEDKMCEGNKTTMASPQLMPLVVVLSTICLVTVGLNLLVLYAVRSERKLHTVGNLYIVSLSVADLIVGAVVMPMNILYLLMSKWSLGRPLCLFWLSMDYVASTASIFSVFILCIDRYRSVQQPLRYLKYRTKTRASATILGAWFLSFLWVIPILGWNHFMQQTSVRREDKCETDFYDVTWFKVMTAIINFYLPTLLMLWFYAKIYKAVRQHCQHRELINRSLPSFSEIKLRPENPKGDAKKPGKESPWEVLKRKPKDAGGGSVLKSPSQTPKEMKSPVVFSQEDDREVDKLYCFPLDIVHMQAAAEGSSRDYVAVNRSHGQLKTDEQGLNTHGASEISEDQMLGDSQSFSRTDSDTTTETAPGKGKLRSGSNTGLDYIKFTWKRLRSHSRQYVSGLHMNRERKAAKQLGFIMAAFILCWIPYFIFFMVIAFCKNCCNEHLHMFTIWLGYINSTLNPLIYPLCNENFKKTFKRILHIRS

Consider `CCN1CCN(Cc2ccc3cc(C(=O)Nc4cc(NC(=O)c5ccc6c(c5)OCCO6)ccc4F)ccc3n2)CC1` [Compound 22, N-(5-(2,3-Dihydrobenzo[b][1,4]dioxine-6-carboxamido)-2-fluorophenyl)-2-((4-ethylpiperazin-1-yl)methyl)quinoline-6-carboxamide], for which the inhibition (usually the relative decrease from the control value, in per cent) at 10 µM in test [1] is -2%; on Histamine H1, 36%; in test [2], 55%; in test [3], 7%; against Dopamine D2S, 5%; against Cholecystokinin (CCKB), -4%. The inhibition at 10 µM against Adrenergic α1D came to 25%; against Melanocortin MC4, 2%; on Opiate K (OP2, KOP), 51%; on Muscarinic M3, 30%; at Adenosine A2A, 91%; in test [4], 38%. Moreover, the inhibition at 10 µM turned out to be […] in test [5], 11% against PPARγ and 4% against GABAB1A.
